Assay results published in US8622991B2, “Method and device for drug delivery” (Insuline Medical Ltd., priority 2007, dated 2014).

Experiments:
[1] = temperature to which the insulin can be exposed (insulin infused tissue region); cited from earlier work
[2] = euglycemic glucose clamp study (Glucose Infusion Rate) after insulin pump bolus, with and without heating device; format: in vivo, human; conditions: FIG. 26a; for time to peak action (GIR): insulin bolus 0.15 U/kg by pump
Text: The infusion set includes a tube 44 and a catheter 47, which is inserted into the subcutaneous tissue. […] The controller unit has a switch/button 48 for manual operation and two indicators 49 for “treatment is on” and for battery status. The two components are connected by wires 43.
The controller monitors the electromagnetic emission from the pump. During a bolus mode, the pump emits a well defined series of electromagnetic pulses at constant rate, shown as arrows 42. […] The temperature of the heater is controlled by the controller using a temperature sensor 45 located on the heating element.
The flat heating element used in this example has several layers. The upper layer is a polyethylene layer which seals the element. Below that layer, there is an etched circuit, below which there is a copper layer for heat distribution and mechanical support. Below that layer, there is another sealing polyethylene layer, below which there is an adhesive tape from 3M® which is bio-compatible. The heater has a thickness of less than 0.2 mm and his diameter is 3 cm. Thin electric wires of length of 60 cm with small connectors at both ends connected the heater to the controller unit. The power used for the heating can be 2 Watts. The heating was turned on and off by the controller to stabilize the skin temperature at 39° C. The heat duration was set to 30 minutes, after which the temperature regulation was stopped.
The subject lied down in supine position.
The above described procedure was performed in the same subjects under the same conditions with and without using the heating device. The two graphs show the GIR in glucose milligrams per minutes per subject's kg vs. time. […] There are many attempts to compose such an “artificial pancreas” since the development of continuous glucose monitors. […] Thus, another use of the methods and devices by the present invention is to combine them with a glucose sensor, insulin delivery device and a control algorithm to provide a better accuracy and robustness of a closed loop glucose level control system.

Substance: Insulin aspart [Novolog]
- maximal limiting temperature [1]: 37 °C

Substance: insulin
- time to peak action (GIR) ([2]; with heating (skin 39° C., 30 minutes), same subject): 50 min
- GIR decrease (indication for insulin clearance out of the circulation and cessation of systemic effects) ([2]; with heating compared to without heating, same subject): much faster
- time to peak action (GIR) ([2]; without heating, typical result in one diabetic subject): 75 min
